Experimental findings from PMC8944975, “Secretin Receptor as a Target in Gastrointestinal Cancer: Expression Analysis and Ligand Development” (Biomedicines, 2022) are described below.

What all share (format): cell-based
For test [1], the target named is T1, human SCTR (Homo sapiens, UniProt P47872). The experiment in a line: β-arr2-GFP translocation assay run in antagonist mode. On IC50, inhibition of β-arr2-GFP translocation (Table 3): peptide 5 min at 37 °C. Also on record: expressed in transfected cells; host or cells: U2OS (human osteosarcoma), stably co-transfected with β-arrestin2-GFP. An excerpt: (§1) U2OS-SCTR/β-arr2-GFP: human osteosarcoma cell line U2OS (purchased from ATCC/LGC Standards, Wesel, Germany) were stably transfected with plasmids encoding SCTR (Homo sapiens) and the fusion protein β-arrestin2-green fluorescent protein (GFP) (Rattus norvegicus-Aequorea victoria) (β-arr2-GFP).
For analysis of antagonistic effects on SCTR, a slightly modified protocol of the β-arr2-GFP translocation was used. […] For analysis, cells were terminally fixed and permeabilized as previously described. The additional monitoring of IDCC fluorescence in the near-infrared channel (667 nm) provided another measure for receptor binding and activation.

Test [2] addresses T1, human SCTR. The experiment in a line: GloSensor cAMP assay, agonist mode. Also on record: expressed in transfected cells. To be noted: for EC50: Supplementary Table S2, GloSensor system, at least three independent experiments in duplicates, decimal comma, read-out: cAMP agonism potency; for Emax: GloSensor cAMP assay, at least 3 independent experiments in duplicates, read-out: cAMP Production, Intrinsic Activity. As to the method: Analysis of downstream signaling of activated SCTR via Gαs G-protein subunits was performed by monitoring intracellular cAMP utilizing the GloSensor system (Promega, Walldorf, Germany) in accordance with the supplier protocol. Measurements were performed using the EnVision Analyzer (PerkinElmer, Rodgau, Germany). For evaluation, concentration–response curves (signal-to-noise ratios plotted) employing the derived statistical mean and SD for estimation of the respective EC50 were calculated using Spotfire Decision Site (TIBCO, Palo Alto, CA, USA). For the analysis of antagonists, a modified protocol was used. Treatment of cells and dilution of the potential antagonist was performed as previously described. Ligand dilutions were added to cells and incubated at room temperature for 5 min. Successively, secretin was added at a final concentration of 0.5 nM for an additional 15 min at room temperature. The emitted chemiluminescence, which correlates with the cAMP concentration, was detected with suitable filters. Evaluation of data was performed as previously described with a calculation of half-maximal inhibitory concentration (IC50).

The target in test [3] is T1, human SCTR. The experiment in a line: agonist-induced β-arr2-GFP translocation. Also on record: expressed in transfected cells; host or cells: U2OS (human osteosarcoma), stably co-transfected with β-arrestin2-GFP. To be noted: Supplementary Tables S1 and S2, decimal comma, '-' not detectable (Figure 4); for β-arrestin2-GFP agonism efficacy: % of wild-type secretin; for EC50: U2OS-SCTR/β-arr2-GFP cells, 20 min at 37 °C, mean of at least three independent experiments in duplicates, read-out: β-arrestin2-GFP agonism potency.
Text: as §1
To evaluate reactivity of human SCTR exposed to different ligand variants, intracellular translocation of a fusion protein of β-arrestin2 and green fluorescent protein was utilized. For evaluation of activation, receptor-mediated recruitment of cytoplasmic β-arr2-GFP was monitored through its translocation into condensed intracellular vesicles. The extent of translocation events was quantified by determining the increasing granularization of the intracellular fluorescence utilizing an automated high-throughput microscope in combination with computational algorithms to estimate potency (EC50) and efficacy, thus characterizing ligand-SCTR interaction. U2OS-SCTR/β-arr2-GFP cells were seeded in 96-well cell culture plates to 60–80% confluence. On the following day, preceding stimulation, cells were incubated for one hour in serum-free medium. Ligand variants were applied as serial dilutions in assay buffer C1. After preincubation, supernatant was discarded by tapping plates overhead repeatedly. For stimulation, 50 µL of ligand dilution was applied per well in duplicates and incubated for 20 min at 37 °C. Successively, cells were fixed by applying 4% buffered formaldehyde (Herbeta Arzneimittel, Berlin, Germany) for 10 min at room temperature and consecutively permeabilized for 10 min at room temperature with 0.1% TritonX-100 in PBS, containing DAPI (4′,6-Diamidin-2-phenylindol, SigmaAldrich, Deisenhofen, Germany, 1 µg/mL) to counterstain nuclei. Microscopic images were recorded by an IN Cell Analyzer 1000 (GE Healthcare, Reading, UK) with 20× magnification at 5 frames per well in a 96-well format. Image processing was performed with IN Cell Investigator software (GE Healthcare, Reading, UK), applying the provided granularity algorithm. The output of the analysis was indicated as vesicle area/cell and was utilized for calculation of concentration–response curves. Parameters derived from curve fitting included the concentration of half-maximal activity (EC50), and intrinsic activity. Intrinsic activity was normalized defining reaction to non-modified wild type secretin as the 100% curve maximum value.

[4] abbreviates: read-out: IC50, inhibition of β-arr2-GFP translocation (Table 3).

Where two headings read alike, the source gives them in different places. Where a SMILES comes first, the peptide text is derived from it. Where no end group is shown, it is not given here. [ ]: non-standard residue; d: D form.

T1 sequence (P47872 23-440): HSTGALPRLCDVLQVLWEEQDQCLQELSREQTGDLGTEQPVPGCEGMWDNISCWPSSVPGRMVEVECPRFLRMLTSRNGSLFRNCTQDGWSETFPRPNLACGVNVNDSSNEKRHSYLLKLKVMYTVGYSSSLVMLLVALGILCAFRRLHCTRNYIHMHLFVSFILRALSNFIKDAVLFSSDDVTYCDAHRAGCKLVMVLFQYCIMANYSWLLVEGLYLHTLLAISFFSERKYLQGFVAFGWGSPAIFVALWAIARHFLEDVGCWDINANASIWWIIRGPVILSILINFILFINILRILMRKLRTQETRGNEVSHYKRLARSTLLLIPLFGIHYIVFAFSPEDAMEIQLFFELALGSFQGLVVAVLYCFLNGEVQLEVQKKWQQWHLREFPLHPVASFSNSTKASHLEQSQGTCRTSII

For `CC(C)C[C@H](NC(=O)CNC(=O)[C@H](CCC(N)=O)NC(=O)[C@H](CC(C)C)NC(=O)[C@H](CC(C)C)NC(=O)[C@H](CCCNC(=N)N)NC(=O)[C@H](CCC(N)=O)NC(=O)[C@H](CC(C)C)NC(=O)[C@H](CCCNC(=N)N)NC(=O)[C@H](C)NC(=O)CNC(=O)[C@H](CCC(=O)O)NC(=O)[C@H](CCCNC(=N)N)NC(=O)[C@H](CC(C)C)NC(=O)[C@H](CCCNC(=N)N)NC(=O)[C@H](CO)NC(=O)[C@H](CC(C)C)NC(=O)[C@H](CCC(=O)O)NC(=O)[C@H](CO)NC(=O)[C@@H](NC(=O)[C@H](Cc1ccccc1)NC(=O)[C@@H](NC(=O)CNC(=O)[C@H](CC(=O)O)NC(=O)[C@@H](N)CO)[C@@H](C)O)[C@@H](C)O)C(=O)N[C@H](C(=O)O)C(C)C` [Peptide 115], at human SCTR [1] (read-out: IC50, inhibition of β-arr2-GFP translocation (Table 2)), the IC50 amounted to 1280 ± 703 nM. Also, the EC50 on human SCTR [2] was determined as 22 nM.

With `CC(C)C[C@H](NC(=O)CNC(=O)[C@H](CCC(N)=O)NC(=O)[C@H](CC(C)C)NC(=O)[C@H](CC(C)C)NC(=O)[C@H](CCCNC(=N)N)NC(=O)[C@H](CCC(N)=O)NC(=O)[C@H](CC(C)C)NC(=O)[C@H](CCCNC(=N)N)NC(=O)[C@H](C)NC(=O)CNC(=O)[C@H](CCC(=O)O)NC(=O)[C@H](C)NC(=O)[C@H](CC(C)C)NC(=O)[C@H](CCCNC(=N)N)NC(=O)[C@H](CO)NC(=O)[C@H](CC(C)C)NC(=O)[C@H](CCC(=O)O)NC(=O)[C@H](CO)NC(=O)[C@@H](NC(=O)[C@H](Cc1ccccc1)NC(=O)[C@H](N)CCCNC(=N)N)[C@@H](C)O)C(=O)N[C@H](C(=O)O)C(C)C` [Peptide 134] (H-[dR]FTSELSRLAEGARLQRLLQGLV-OH), on human SCTR [1] (setting [4]), the IC50 came to 1580 ± 77 nM.

On to `CC(C)C[C@H](NC(=O)CNC(=O)[C@H](CCC(N)=O)NC(=O)[C@H](CC(C)C)NC(=O)[C@H](CC(C)C)NC(=O)[C@H](CCCNC(=N)N)NC(=O)[C@H](CCC(N)=O)NC(=O)[C@H](CC(C)C)NC(=O)[C@H](CCCNC(=N)N)NC(=O)[C@H](C)NC(=O)[C@H](C)NC(=O)[C@H](CCC(=O)O)NC(=O)[C@H](CCCNC(=N)N)NC(=O)[C@H](CC(C)C)NC(=O)[C@H](CCCNC(=N)N)NC(=O)[C@H](CO)NC(=O)[C@H](CC(C)C)NC(=O)[C@H](CCC(=O)O)NC(=O)[C@H](CO)NC(=O)[C@@H](NC(=O)[C@H](Cc1ccccc1)NC(=O)[C@H](N)CCCNC(=N)N)[C@@H](C)O)C(=O)N[C@H](C(=O)O)C(C)C` [Peptide 136], for which, on human SCTR [2], the Emax amounted to 33.6 ± 0.9%.

With `CC(C)C[C@H](NC(=O)CNC(=O)[C@H](CCC(N)=O)NC(=O)[C@H](CC(C)C)NC(=O)[C@H](CC(C)C)NC(=O)[C@H](CCCNC(=N)N)NC(=O)[C@H](CCC(N)=O)NC(=O)[C@H](CC(C)C)NC(=O)[C@H](C)NC(=O)[C@H](C)NC(=O)CNC(=O)[C@H](CCC(=O)O)NC(=O)[C@H](CCCNC(=N)N)NC(=O)[C@H](CC(C)C)NC(=O)[C@H](CCCNC(=N)N)NC(=O)[C@H](CO)NC(=O)[C@H](CC(C)C)NC(=O)[C@H](CCC(=O)O)NC(=O)[C@H](CO)NC(=O)[C@@H](NC(=O)[C@H](Cc1ccccc1)NC(=O)[C@H](N)CCCNC(=N)N)[C@@H](C)O)C(=O)N[C@H](C(=O)O)C(C)C` [Peptide 137] (H-[dR]FTSELSRLREGAALQRLLQGLV-OH), the IC50 at human SCTR [1] (setting [4]) turned out to be 1860 ± 159 nM.

As for `CC(C)C[C@H](NC(=O)CNC(=O)[C@H](CCC(N)=O)NC(=O)[C@H](CC(C)C)NC(=O)[C@H](CC(C)C)NC(=O)[C@H](CCCNC(=N)N)NC(=O)[C@H](C)NC(=O)[C@H](CC(C)C)NC(=O)[C@H](CCCNC(=N)N)NC(=O)[C@H](C)NC(=O)CNC(=O)[C@H](CCC(=O)O)NC(=O)[C@H](CCCNC(=N)N)NC(=O)[C@H](CC(C)C)NC(=O)[C@H](CCCNC(=N)N)NC(=O)[C@H](CO)NC(=O)[C@H](CC(C)C)NC(=O)[C@H](CCC(=O)O)NC(=O)[C@H](CO)NC(=O)[C@@H](NC(=O)[C@H](Cc1ccccc1)NC(=O)[C@H](N)CCCNC(=N)N)[C@@H](C)O)C(=O)N[C@H](C(=O)O)C(C)C` [Peptide 139] (H-[dR]FTSELSRLREGARLARLLQGLV-OH), the IC50 on human SCTR [1] (setting [4]) turned out to be 1020 ± 107 nM.

Consider `CC(C)C[C@H](NC(=O)CNC(=O)[C@H](CCC(N)=O)NC(=O)[C@H](CC(C)C)NC(=O)[C@H](CC(C)C)NC(=O)[C@H](C)NC(=O)[C@H](CCC(N)=O)NC(=O)[C@H](CC(C)C)NC(=O)[C@H](CCCNC(=N)N)NC(=O)[C@H](C)NC(=O)CNC(=O)[C@H](CCC(=O)O)NC(=O)[C@H](CCCNC(=N)N)NC(=O)[C@H](CC(C)C)NC(=O)[C@H](CCCNC(=N)N)NC(=O)[C@H](CO)NC(=O)[C@H](CC(C)C)NC(=O)[C@H](CCC(=O)O)NC(=O)[C@H](CO)NC(=O)[C@@H](NC(=O)[C@H](Cc1ccccc1)NC(=O)[C@H](N)CCCNC(=N)N)[C@@H](C)O)C(=O)N[C@H](C(=O)O)C(C)C` [Peptide 140] (H-[dR]FTSELSRLREGARLQALLQGLV-OH), for which the IC50 at human SCTR [1] (setting [4]) was found to be 1490 ± 218 nM.

On to `CC(C)C[C@H](NC(=O)CNC(=O)[C@H](C)NC(=O)[C@H](CC(C)C)NC(=O)[C@H](CC(C)C)NC(=O)[C@H](CCCNC(=N)N)NC(=O)[C@H](CCC(N)=O)NC(=O)[C@H](CC(C)C)NC(=O)[C@H](CCCNC(=N)N)NC(=O)[C@H](C)NC(=O)CNC(=O)[C@H](CCC(=O)O)NC(=O)[C@H](CCCNC(=N)N)NC(=O)[C@H](CC(C)C)NC(=O)[C@H](CCCNC(=N)N)NC(=O)[C@H](CO)NC(=O)[C@H](CC(C)C)NC(=O)[C@H](CCC(=O)O)NC(=O)[C@H](CO)NC(=O)[C@@H](NC(=O)[C@H](Cc1ccccc1)NC(=O)[C@H](N)CCCNC(=N)N)[C@@H](C)O)C(=O)N[C@H](C(=O)O)C(C)C` [Peptide 143], for which the Emax at human SCTR [2] came to 27.5 ± 8.8%.

With `CC(C)C[C@H](NC(=O)[C@H](C)NC(=O)[C@H](CCC(N)=O)NC(=O)[C@H](CC(C)C)NC(=O)[C@H](CC(C)C)NC(=O)[C@H](CCCNC(=N)N)NC(=O)[C@H](CCC(N)=O)NC(=O)[C@H](CC(C)C)NC(=O)[C@H](CCCNC(=N)N)NC(=O)[C@H](C)NC(=O)CNC(=O)[C@H](CCC(=O)O)NC(=O)[C@H](CCCNC(=N)N)NC(=O)[C@H](CC(C)C)NC(=O)[C@H](CCCNC(=N)N)NC(=O)[C@H](CO)NC(=O)[C@H](CC(C)C)NC(=O)[C@H](CCC(=O)O)NC(=O)[C@H](CO)NC(=O)[C@@H](NC(=O)[C@H](Cc1ccccc1)NC(=O)[C@H](N)CCCNC(=N)N)[C@@H](C)O)C(=O)N[C@H](C(=O)O)C(C)C` [Peptide 144], the Emax on human SCTR [2] was determined as 31.1 ± 2.2%.

For HSDGTFTSELSRLREGARLQ [Peptide 103], the EC50 on human SCTR [2] came out at 875 nM.

As to HSDGTFTSELSRLREGARLQR [Peptide 102], the EC50 on human SCTR [2] was 586 nM.

HSDGTFTSELSRLREGARLQRL [Peptide 101]: on human SCTR [2], the EC50 was determined as 57 nM.

Take HSDGTFTSELSRLREGARLQRLL [Peptide 100]: the EC50 at human SCTR [2] is 7.63 nM. Also, on human SCTR [3], the β-arrestin2-GFP agonism efficacy is recorded as 92,23 % Sec and the EC50 was 131 nM.

Consider HSDGTFTSELSRLREGARLQRLLQ [Peptide 99], for which the EC50 on human SCTR [2] amounted to 2.09 nM; on human SCTR [3] it was 35.9 nM. In addition, the β-arrestin2-GFP agonism efficacy on human SCTR [3] was 103,60 % Sec.

Regarding HSDGTFTSELSRLREGARLQRLLQG [Peptide 98], the EC50 came to 1.55 nM at human SCTR [2] and 26.5 nM at human SCTR [3]. Also, on human SCTR [3], the β-arrestin2-GFP agonism efficacy is 104,47 % Sec.

As for HSDGTFTSELSRLREGARLQRLLQGL [Peptide 97], at human SCTR [2], the EC50 stood at 0.51 nM. For the same molecule, on human SCTR [3], the β-arrestin2-GFP agonism efficacy is recorded as 109,53 % Sec and the EC50 came out at 8.8 nM.
